Data on five compounds can be found in article PMC5589090 (PLoS Medicine, 2017).

Details of data set [1]: method as in ref 26 (a number printed in a supplementary file, which may have a reference list of its own: not looked up in the article's list). The settings on record: cited from earlier work.
Data set [2] can be described thus: THU solubility and storage stability. The data set is classed as physicochemical. The settings on record: stored at -20°C; 1 year study and about 4 years re test. The protocol:
Prior to administration, a glass bottle containing THU will be brought to room temperature, and dissolved in 2 ml water with a further dilution to a final volume of 10 ml, to create a solution with a final concentration that is determined by the amount of drug in the glass vial (THU is soluble to at least 100 mg/ml in water). Using this final concentration, a volume of solution containing the appropriate dose will be removed, diluted further with water to a total volume of 30ml and given by mouth. The time between reconstitution of drug and oral administration should not exceed 60 minutes, and remaining solution is to be discarded.

For data set [3] the following is noted: cited from earlier work.
On the set-up of data set [4]: method as in ref 40,59-61,63-69 (main text); 25;37-45 (protocol). The settings on record: 25;37-45 (protocol); cited from earlier work.
Another data set has as its system nucleotide pool sizes. The settings on record: cited from earlier work.
The conditions of data set [5]: in vivo; cited from earlier work.
The subject of the next data set is mammary tumors. The settings on record: intraperitoneal 125-250 mg/kg thrice weekly for 6 months, rats surviving to 18 months; cited from earlier work.
Data set [6] deals with HbF. The settings on record: cited from earlier work.
For data set [7] the following is noted: cited from earlier work. This is another data set of the same source.
For data set [8] the following is noted: cited from earlier work. The source holds these as a separate data set.
The conditions of data set [9]: 4 SCD subjects, subcutaneous or oral, 30-500 days; cited from earlier work.
In data set [10] the test system is HbF. The settings on record: same non-human primates (n = 14); cited from earlier work.

Several values for one entry are separate records, joined by “and”; a condition that tells them apart may be missing. Equal values may be shown once. Entries after “also recorded” stand apart in the source; their conditions may differ. Read-outs that look alike come from different tables or passages of the source.

As for `Nc1ccn([C@@H]2O[C@H](CO)[C@@H](O)C2(F)F)c(=O)n1` [gemcitabine], the figures for the oral bioavailability in [1] (with THU co-administration) and in data set [1] (without THU) were ~ 40% and ~ 10%, respectively.

For the compound `O=C1NC(O)CCN1[C@@H]1O[C@H](CO)[C@@H](O)[C@H]1O` (stereo partly drawn) [THU, tetrahydrouridine], the “stability of bulk drug” value in data set [2] is “demonstrate THU stability”. Moreover, the solubility in water result in [3] is given as “at least 100 mg/ml”. In data set [4], the “toxicity / side effects in animals and humans” value is reported as “No toxicities have been found; also recorded: have not identified any toxic side-effects; also recorded: no toxic side-effects have been identified; also recorded: benign toxicity profile; also recorded: no side effects observed; also recorded: has not caused toxicity”. Further, the “effect on nucleotide pool sizes” value in the data set on nucleotide pool sizes is “no effect”. In addition, the “share of elimination by renal excretion” value in [5] is ~ 50%.

In the case of `NC(=O)NO` [hydroxyurea], in the data set with mammary tumors, the “incidence of mammary tumors” value was “increased the incidence of mammary tumors”. Besides, in the data set with HbF [6] (SCD patients with no HbF response in the pivotal trial), the “mean change in HbF after 2 years of treatment” value was ~0% and 0.3%. Moreover, the “adult SCD patients in whom HbF increased for 2 years” value with HbF [6] (hydroxyurea 15–35 mg/kg, pivotal trial) was “approximately 50%”. Moreover, the “subjects who did not respond (no elevated HbF after two years)” value with HbF [6] (pivotal multi-center trial) is listed as “approximately 50%”. Also, in the data set with HbF [6] (pivotal trial), the “Average HbF increases at 2 years” value is listed as 3.6% and the “average total hemoglobin increase” value is reported as 0.6 g/dL. Also, in [7] (package insert), the genotoxicity entry is given as “genotoxic in a wide range of test systems”. Besides, the neutrophil recovery time entry in data set [7] (pancellular hematologic toxicities, ref AHFS Drug Information, 2000) is on record as “up to 2 weeks”.

Turning to `Nc1ccn([C@@H]2O[C@H](CO)[C@@H](O)[C@@H]2O)c(=O)n1` [cytarabine], the “greater exposure in mice versus monkey dose for dose” value in [8] was “more than 100 fold”.

For the compound `Nc1ncn([C@@H]2O[C@H](CO)[C@@H](O)[C@H]2O)c(=O)n1` [5-azacytidine], in data set [9], the marrow toxicity result is “No marrow toxicity was observed”. Besides, in the data set on HbF [10], the “greater increases in HbF than cytarabine or hydroxyurea” value is on record as 2 to 20 fold.
